In patent US20110306606A1, “NOVEL 2,6-SUBSTITUTED-3-NITROPYRIDINE DERIVATIVE, METHOD FOR PREPARING SAME, AND PHARMACEUTICAL COMPOSITION INCLUDING SAME” (priority 2008, published 2011):

Test system: Osteoblasts (Calvarial cells)
Experiment: Cytotoxicity test (MTT)
Conditions: 1 μM compound, 72 hours, in comparison with vehicle control

Point of comparison: `Nc1cccc(Nc2nc(NCCCN3CCOCC3)ccc2[N+](=O)[O-])c1` [Compound 84, 2-[3-(amino)phenylamino]-6-[3-(morpholin-1-yl)propylamino]-3-nitropyridine], “Cell viability (%) Calvarial cell” value 108%. Against it:
- Cc1ccc(Nc2nc(N(C)CC3OCCO3)ccc2[N+](=O)[O-])cc1 [Compound 4, 2-(4-methylphenylamino)-6-[(N-[1,3]-dioxolan-2-ylmethyl)methylamino]-3-nitropyridine] — lower, 104%
- Cc1ccc(Nc2nc(NCc3ccncc3)ccc2[N+](=O)[O-])cc1 [Compound 8] — lower, 92%
- COc1ccc(Nc2nc(N(C)CCO)ccc2[N+](=O)[O-])cc1 [Compound 24, 2-(4-methoxyphenylamino)-6-[(N-methyl-2-hydroxy)ethylamino]-3-nitropyridine] — lower, 99%
- CN(CC1OCCO1)c1ccc([N+](=O)[O-])c(Nc2ccc(C(C)(C)C)cc2)n1 [Compound 33, 2-[4-(t-butyl)phenylamino]-6-[(N-[1,3]-dioxolan-2-ylmethyl)methylamino]-3-nitropyridine] — lower, 93%
- CC1=NCCN1c1ccc([N+](=O)[O-])c(Nc2ccc(C#N)cc2)n1 [Compound 48, 2-(4-cyanophenylamino)-6-[(2-methyl-4,5-dihydro)imidazol-1-yl]-3-nitropyridine] — lower, 103%
- Nc1ccc(Nc2nc(NCCN3CCOCC3)ccc2[N+](=O)[O-])cc1 [Compound 68, 2-[4-(amino)phenylamino]-6-[2-(morpholin-1-yl)ethylamino]-3-nitropyridine] — lower, 103%
- Nc1ccc(Nc2nc(NCCCN3CCOCC3)ccc2[N+](=O)[O-])cc1 [Compound 69, 2-[4-(amino)phenylamino]-6-[3-(morpholin-1-yl)propylamino]-3-nitropyridine] — higher, 110%
- Nc1cccc(Nc2nc(NCCN3CCOCC3)ccc2[N+](=O)[O-])c1 [Compound 83, 2-[3-(amino)phenylamino]-6-[2-(morpholin-1-yl)ethylamino]-3-nitropyridine] — lower, 99%
- CN(CC1OCCO1)c1ccc([N+](=O)[O-])c(Nc2ccc(N3CCOCC3)cc2)n1 [Compound 111, 2-(4-morpholinophenylamino)-6-[(N-[1,3]-dioxolan-2-ylmethyl)methylamino]-3-nitropyridine] — lower, 95%
- CN(CC1OCCO1)c1ccc([N+](=O)[O-])c(Nc2ccc(F)c(F)c2)n1 [Compound 127, 2-[(3,4-difluoro)phenylamino]-6-[(N-[1,3]-dioxolan-2-ylmethyl)-methylamino]-3-nitropyridine] — lower, 99%
- CCN(CCO)c1ccc([N+](=O)[O-])c(Nc2ccc(-c3csc(C4CCCCC4)n3)cc2)n1 [Compound 156, 2-[4-(2-cyclohexylthiazol-4-yl)phenylamino]-6-[(N-ethyl-2-hydroxyethyl)amino]-3-nitropyridine] — the same, 108%
- CN1CCN(c2ccc([N+](=O)[O-])c(Nc3ccc(-c4csc(C5CCCCC5)n4)cc3)n2)CC1 [Compound 159] — lower, 100%
- CCN(CC)c1ccc(Nc2nc(NC)ccc2[N+](=O)[O-])cc1F [Compound 175, 2-[(3-fluoro-4-diethylamino)phenylamino]-6-(methylamino)-3-nitropyridine] — lower, 104%
- CCN(CC)c1ccc(Nc2nc(NC(C)C)ccc2[N+](=O)[O-])cc1F [Compound 176, 2-[(3-fluoro-4-diethylamino)phenylamino]-6-(isopropylamino)-3-nitropyridine] — higher, 109%
- CCN(CC)c1ccc(Nc2nc(NC(C)(C)C)ccc2[N+](=O)[O-])cc1F [Compound 178, 2-[(3-fluoro-4-diethylamino)phenylamino]-6-(t-butylamino)-3-nitropyridine] — higher, 109%
- CCN(CC)c1ccc(Nc2nc(N3CCC(O)CC3)ccc2[N+](=O)[O-])cc1F [Compound 179, 2-[(3-fluoro-4-diethylamino)phenylamino]-6-(4-hydroxypiperidino)-3-nitropyridine] — lower, 104%
- CCN(CC)c1ccc(Nc2nc(-n3ccnc3C(C)C)ccc2[N+](=O)[O-])cc1F [Compound 180, 2-[(3-fluoro-4-diethylamino)phenylamino]-6-[(2-isopropyl)imidazol-1-yl]-3-nitropyridine] — lower, 100%
- CCN(CC)c1ccc(Nc2nc(N3CCN=C3C)ccc2[N+](=O)[O-])cc1F [Compound 181, 2-[(3-fluoro-4-diethylamino)phenylamino]-6-[(2-methyl-4,5-dihydro)imidazol-1-yl]-3-nitropyridine] — lower, 106%
- CCN(CC)c1ccc(Nc2nc(N3CCNCC3)ccc2[N+](=O)[O-])cc1F [Compound 182, 2-[(3-fluoro-4-diethylamino)phenylamino]-6-(piperazin-1-yl)-3-nitropyridine] — lower, 101%
- CCN(CC)c1ccc(Nc2nc(N3CCN(C)CC3)ccc2[N+](=O)[O-])cc1F [Compound 183, 2-[(3-fluoro-4-diethylamino)phenylamino]-6-(4-methylpiperazin-1-yl)-3-nitropyridine] — higher, 113%
- CCN(CC)c1ccc(Nc2nc(N3CCOCC3)ccc2[N+](=O)[O-])cc1F [Compound 184, 2-[(3-fluoro-4-diethylamino)phenylamino]-6-morpholino-3-nitropyridine] — higher, 110%
- CCN(CC)c1ccc(Nc2nc(NCc3cccnc3)ccc2[N+](=O)[O-])cc1F [Compound 185, 2-[(3-fluoro-4-diethylamino)phenylamino]-6-[(3-pyridyl)methylamino]-3-nitropyridine] — higher, 111%
- CCN(CC)c1ccc(Nc2nc(NCc3ccncc3)ccc2[N+](=O)[O-])cc1F [Compound 186, 2-[(3-fluoro-4-diethylamino)phenylamino]-6-[(4-pyridyl)methylamino]-3-nitropyridine] — higher, 113%
- CCN(CC)c1ccc(Nc2nc(N3CCC(N)CC3)ccc2[N+](=O)[O-])cc1F [Compound 187, 2-[(3-fluoro-4-diethylamino)phenylamino]-6-(4-aminopiperidino)-3-nitropyridine] — lower, 102%
- CCN(CC)c1ccc(Nc2nc(NCCN3CCOCC3)ccc2[N+](=O)[O-])cc1F [Compound 188, 2-[(3-fluoro-4-diethylamino)phenylamino]-6-[2-(morpholin-1-yl)ethylamino]-3-nitropyridine] — higher, 111%
- CCN(CC)c1ccc(Nc2nc(NCCCn3ccnc3)ccc2[N+](=O)[O-])cc1F [Compound 189, 2-[(3-fluoro-4-diethylamino)phenylamino]-6-[(3-imidazol-1-yl)propylamino]-3-nitropyridine] — higher, 129%
- CCN(CC)c1ccc(Nc2nc(NCCCN3CCOCC3)ccc2[N+](=O)[O-])cc1F [Compound 190, 2-[(3-fluoro-4-diethylamino)phenylamino]-6-[(3-morpholin-1-yl)propylamino]-3-nitropyridine] — higher, 123%
- O=[N+]([O-])c1ccc(N2CCC(O)CC2)nc1Nc1ccc(N2CCOCC2)c(F)c1 [Compound 194, 2-[(3-fluoro-4-morpholino)phenylamino]-6-(4-hydroxypiperidino)-3-nitropyridine] — lower, 107%
- CC1=NCCN1c1ccc([N+](=O)[O-])c(Nc2ccc(N3CCOCC3)c(F)c2)n1 [Compound 195, 2-[(3-fluoro-4-morpholino)phenylamino]-6-[(2-methyl-4,5-dihydro)imidazol-1-yl]-3-nitropyridine] — lower, 104%
- CC(C)c1nccn1-c1ccc([N+](=O)[O-])c(Nc2ccc(N3CCOCC3)c(F)c2)n1 [Compound 196, 2-[(3-fluoro-4-morpholino)phenylamino]-6-[(2-isopropyl)imidazol-1-yl]-3-nitropyridine] — lower, 100%
- CN1CCN(c2ccc([N+](=O)[O-])c(Nc3ccc(N4CCOCC4)c(F)c3)n2)CC1 [Compound 200, 2-[(3-fluoro-4-morpholino)phenylamino]-6-(4-methylpiperazin-1-yl)-3-nitropyridine] — lower, 107%
- CC(C)Nc1ccc([N+](=O)[O-])c(Nc2ccc(N3CCSCC3)c(F)c2)n1 [Compound 204, 2-[(3-fluoro-4-thiomorpholino)phenylamino]-6-(isopropylamino)-3-nitropyridine] — lower, 102%
- CC1=NCCN1c1ccc([N+](=O)[O-])c(Nc2ccc(N3CCSCC3)c(F)c2)n1 [Compound 207, 2-[(3-fluoro-4-thiomorpholino)phenylamino]-6-[(2-methyl-4,5-dihydro)imidazol-1-yl]-3-nitropyridine] — lower, 102%
- CC(C)c1nccn1-c1ccc([N+](=O)[O-])c(Nc2ccc(N3CCSCC3)c(F)c2)n1 [Compound 208, 2-[(3-fluoro-4-thiomorpholino)phenylamino]-6-[(2-isopropyl)imidazol-1-yl]-3-nitropyridine] — lower, 101%
- CC(C)(C)Nc1ccc([N+](=O)[O-])c(Nc2ccc(N3CCSCC3)c(F)c2)n1 [Compound 211, 2-[(3-fluoro-4-thiomorpholino)phenylamino]-6-(t-butylamino)-3-nitropyridine] — higher, 110%
- O=[N+]([O-])c1ccc(N2CCC(O)CC2)nc1Nc1ccc(N2CCNCC2)c(F)c1 [Compound 218, 2-[(3-fluoro-4-piperazino)phenylamino]-6-(4-hydroxypiperidino)-3-nitropyridine] — lower, 96%
- CC(C)c1nccn1-c1ccc([N+](=O)[O-])c(Nc2ccc(N3CCNCC3)c(F)c2)n1 [Compound 219, 2-[(3-fluoro-4-piperazino)phenylamino]-6-[(2-isopropyl)imidazol-1-yl]-3-nitropyridine] — lower, 89%
- CC(C)(C)Nc1ccc([N+](=O)[O-])c(Nc2ccc(N3CCNCC3)c(F)c2)n1 [Compound 222, 2-[(3-fluoro-4-piperazino)phenylamino]-6-(t-butylamino)-3-nitropyridine] — lower, 95%
